In patent US20240228489A1, “POSITIVE ALLOSTERIC MODULATORS OF THE MUSCARINIC ACETYLCHOLINE RECEPTOR M1” (Vanderbilt University, priority 2021, published 2024):

Columns and labels:
human mAChR M1 [1] = target: T1, human mAChR M1 (Homo sapiens, UniProt P11229); test: mAChR M1 cell-based functional assay (calcium mobilization), PAM mode: increase in the EC20 acetylcholine response
T1 sequence (P11229 1-460): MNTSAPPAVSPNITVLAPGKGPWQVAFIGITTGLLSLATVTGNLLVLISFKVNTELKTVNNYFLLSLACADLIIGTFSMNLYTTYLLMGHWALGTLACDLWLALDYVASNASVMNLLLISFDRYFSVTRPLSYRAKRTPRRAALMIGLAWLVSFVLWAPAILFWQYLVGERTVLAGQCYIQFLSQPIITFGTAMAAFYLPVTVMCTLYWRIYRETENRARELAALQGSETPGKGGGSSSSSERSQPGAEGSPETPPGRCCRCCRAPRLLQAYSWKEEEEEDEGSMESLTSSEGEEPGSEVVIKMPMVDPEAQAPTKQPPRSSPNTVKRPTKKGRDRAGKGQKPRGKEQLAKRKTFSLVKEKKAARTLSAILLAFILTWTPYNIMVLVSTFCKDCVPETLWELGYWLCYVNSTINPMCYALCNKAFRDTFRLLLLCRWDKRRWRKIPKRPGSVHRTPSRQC
Summary of the method: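 PAM readout is the concentration-dependent rise in the EC20 acetylcholine calcium signal, fitted to a four-parameter logistic (EC50, Emax). Compounds were preincubated from 4 s before ACh at 144 s (EC20) and 230 s (EC80). hM1-expressing CHO-K1 cells loaded with Fluo-4, FDSS ratio read.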

human mAChR M1 [2] = target: T1, human mAChR M1; test: mAChR M1 cell-based functional assay (calcium mobilization), agonist mode: compound alone, Emax relative to acetylcholine maximum; settings: for EC50 / Agonist Activity Human M1 EC50: human mAChR M1; for Emax: relative to the maximum for acetylcholine
Summary of the method: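 Agonist activity is the concentration-dependent rise in intracellular calcium (Fluo-4, 1 Hz read) after compound addition, measured before any acetylcholine was added, in stable hM1 CHO-K1 cells. Curves were 11-point, 1:3 dilutions fitted by four-parameter logistic. Emax is given as a fraction of maximal acetylcholine response.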

| Structure (SMILES) | EC50 (human mAChR M1 [1]) [nM] | Emax (human mAChR M1 [1]) [%] | EC50 (human mAChR M1 [2]) [nM] | Emax (human mAChR M1 [2]) [%] | Agonist Activity Human M1 EC50 (human mAChR M1 [2]) |
| --- | --- | --- | --- | --- | --- |
| [2H]C1([2H])c2ncccc2C(=O)N1Cc1c(F)cc(-c2cccc3nn(C([2H])([2H])[2H])cc23)cc1N(C)C [Compound 230, 6-(2-(dimethylamino)-6-fluoro-4-(2-(methyl-d3)-2H-indazol-4-yl)benzyl)-6,7-dihydro-5H-pyrrolo[3,4-b]pyridin-5-one-7,7-d2] | ≥ 10000 | 38 | – | 3 | Inactive |
| [2H]C1([2H])c2ncccc2C(=O)N1Cc1ccc(-c2cc(C)c3nn(C)cc3c2)cc1F [Compound 25, 6-(4-(2,7-dimethyl-2H-indazol-5-yl)-2-fluorobenzyl)-6,7-dihydro-5H-pyrrolo[3,4-b]pyridin-5-one-7,7-d2] | 1070 | 76 | – | 4 | Inactive |
| [2H]C1([2H])c2ncccc2C(=O)N1Cc1c(F)cc(-c2ccc(OC3CC3)c3nn(C)cc23)cc1OCC(C)C [Compound 212, 6-(4-(7-cyclopropoxy-2-methyl-2H-indazol-4-yl)-2-fluoro-6-isobutoxybenzyl)-6,7-dihydro-5H-pyrrolo[3,4-b]pyridin-5-one-7,7-d2] | 1450 | 82 | – | 2 | Inactive |
| [2H]C1([2H])c2ncccc2C(=O)N1Cc1c(F)cc(-c2cccc3nn(C)cc23)cc1OCC(C)C [Compound 210, 6-(2-fluoro-6-isobutoxy-4-(2-methyl-2H-indazol-4-yl)benzyl)-6,7-dihydro-5H-pyrrolo[3,4-b]pyridin-5-one-7,7-d2] | 865 | 83 | – | 14 | Inactive |
| [2H]C1([2H])c2ncccc2C(=O)N1Cc1c(F)cc(-c2cccc3nn(C([2H])([2H])[2H])cc23)cc1OC [Compound 232, 6-(2-fluoro-6-methoxy-4-(2-(methyl-d3)-2H-indazol-4-yl)benzyl)-6,7-dihydro-5H-pyrrolo[3,4-b]pyridin-5-one-7,7-d2] | 760 | 80 | – | 8 | Inactive |
| [2H]C([2H])([2H])Oc1cc(-c2cc(F)c(CN3C(=O)c4cccnc4C3([2H])[2H])c(F)c2)c2cn(C([2H])([2H])[2H])nc2c1 [Compound 87, 6-(2,6-difluoro-4-(6-(methoxy-d3)-2-(methyl-d3)-2H-indazol-4-yl)benzyl)-6,7-dihydro-5H-pyrrolo[3,4-b]pyridin-5-one-7,7-d2] | 819 | 69 | – | 11 | Inactive |
| [2H]C1([2H])c2ncccc2C(=O)N1Cc1ccc(-c2ccc(OCCOC(C)C)c3nn(C)cc23)cc1F [Compound 153, 6-(2-fluoro-4-(7-(2-isopropoxyethoxy)-2-methyl-2H-indazol-4-yl)benzyl)-6,7-dihydro-5H-pyrrolo[3,4-b]pyridin-5-one-7,7-d2] | 1340 | 79 | ≥ 10000 | 15 | – |
| [2H]C1([2H])c2ncccc2C(=O)N1Cc1c(F)cc(-c2ccc3c(cnn3C([2H])([2H])[2H])c2)cc1F [Compound 101, 6-(2,6-difluoro-4-(1-(methyl-d3)-1H-indazol-5-yl)benzyl)-6,7-dihydro-5H-pyrrolo[3,4-b]pyridin-5-one-7,7-d2] | 1410 | 75 | – | 3 | Inactive |
| [2H]C1([2H])c2ncccc2C(=O)N1Cc1c(F)cc(-c2cccc3c2cnn3C(C)C)cc1F [Compound 64, 6-(2,6-difluoro-4-(1-isopropyl-1H-indazol-4-yl)benzyl)-6,7-dihydro-5H-pyrrolo[3,4-b]pyridin-5-one-7,7-d2] | 1840 | 79 | – | 2 | Inactive |

Stronger by EC50 (human mAChR M1 [1]), values ahead:

| EC50 (human mAChR M1 [1]) [nM] | Emax (human mAChR M1 [1]) [%] | EC50 (human mAChR M1 [2]) [nM] | Emax (human mAChR M1 [2]) [%] | Agonist Activity Human M1 EC50 (human mAChR M1 [2]) | Structure (SMILES) |
| --- | --- | --- | --- | --- | --- |
| 335 | 81 | 9700 | 38 | – | [2H]C1([2H])c2ncccc2C(=O)N1Cc1c(F)cc(-c2ccc(Cl)c3nn(C)cc23)cc1C1CC1 [Compound 206, 6-(4-(7-chloro-2-methyl-2H-indazol-4-yl)-2-cyclopropyl-6-fluorobenzyl)-6,7-dihydro-5H-pyrrolo[3,4-b]pyridin-5-one-7,7-d2] |
| 490 | 89 | – | 8 | Inactive | [2H]C1([2H])c2ncccc2C(=O)N1Cc1c(Cl)cc(-c2cccc3nn(C)cc23)cc1C1CC1 [Compound 219, 6-(2-chloro-6-cyclopropyl-4-(2-methyl-2H-indazol-4-yl)benzyl)-6,7-dihydro-5H-pyrrolo[3,4-]pyridin-5-one-7,7-d2] |
| 288 | 72 | 8200 | 54 | – | [2H]C1([2H])c2ncccc2C(=O)N1Cc1c(F)cc(-c2ccc(OC3CCOCC3)c3nn(C)cc23)cc1F [Compound 140, 6-(2,6-difluoro-4-(2-methyl-7-((tetrahydro-2H-pyran-4-yl)oxy)-2H-indazol-4-yl)benzyl)-6,7-dihydro-5H-pyrrolo[3,4-b]pyridin-5-one-7,7-d2] |
| 381 | 80 | – | 5 | Inactive | [2H]C1([2H])c2ncccc2C(=O)N1Cc1c(F)cc(-c2ccc(OCCN(C)C)c3nn(C)cc23)cc1F [Compound 131, 6-(4-(7-(2-(dimethylamino)ethoxy)-2-methyl-2H-indazol-4-yl)-2,6-difluorobenzyl)-6,7-dihydro-5H-pyrrolo[3,4-b]pyridin-5-one-7,7-d2] |
| 490 | 80 | 7930 | 11 | – | [2H]C1([2H])c2ncccc2C(=O)N1Cc1c(F)cc(-c2ccc(C(F)F)c3nn(C)cc23)cc1F [Compound 123, 6-(4-(7-(difluoromethyl)-2-methyl-2H-indazol-4-yl)-2,6-difluorobenzyl)-6,7-dihydro-5H-pyrrolo[3,4-b]pyridin-5-one-7,7-d2] |
| 428 | 63 | 6070 | 18 | – | [2H]C1([2H])c2ncccc2C(=O)N1Cc1c(F)cc(-c2ccc(OC3CCOC3)c3nn(C([2H])([2H])[2H])cc23)cc1F (stereo not drawn) [Compound 128, 6-(2,6-difluoro-4-(2-(methyl-d3)-7-((tetrahydrofuran-3-yl)oxy)-2H-indazol-4-yl)benzyl)-6,7-dihydro-5H-pyrrolo[3,4-b]pyridin-5-one-7,7-d2] |
| 473 | 67 | – | 1 | Inactive | [2H]C1([2H])c2ncccc2C(=O)N1Cc1c(F)cc(-c2ccc(OC3CN(S(=O)(=O)C(C)C)C3)c3nn(C)cc23)cc1F [Compound 187, 6-(2,6-difluoro-4-(7-((1-(isopropylsulfonyl)azetidin-3-yl)oxy)-2-methyl-2H-indazol-4-yl)benzyl)-6,7-dihydro-5H-pyrrolo[3,4-b]pyridin-5-one-7,7-d2] |
| 122 | 73 | 8020 | 50 | – | [2H]C1([2H])c2ncc(O)cc2C(=O)N1Cc1c(F)cc(-c2cccc3nn(C([2H])([2H])[2H])cc23)cc1F [Compound 141, 6-(2,6-difluoro-4-(2-(methyl-d3)-2H-indazol-4-yl)benzyl)-3-hydroxy-6,7-dihydro-5H-pyrrolo[3,4-b]pyridin-5-one-7,7-d2] |
| 405 | 78 | 7520 | 26 | – | [2H]C1([2H])c2ncccc2C(=O)N1Cc1c(F)cc(-c2ccc(OCC3CCO3)c3nn(C)cc23)cc1F (stereo not drawn) [Compound 135, 6-(2,6-difluoro-4-(2-methyl-7-(oxetan-2-ylmethoxy)-2H-indazol-4-yl)benzyl)-6,7-dihydro-5H-pyrrolo[3,4-b]pyridin-5-one-7,7-d2] |
| 239 | 81 | – | 3 | Inactive | [2H]C1([2H])c2ncccc2C(=O)N1Cc1c(F)cc(-c2ccc(OC)c3nn(C)cc23)cc1Cl [Compound 163, 6-(2-chloro-6-fluoro-4-(7-methoxy-2-methyl-2H-indazol-4-yl)benzyl)-6,7-dihydro-5H-pyrrolo[3,4-b]pyridin-5-one-7,7-d2] |
| 179 | 79 | 4640 | 28 | – | [2H]C([2H])([2H])Oc1cnc2c(c1)C(=O)N(Cc1c(F)cc(-c3ccc(OC)c4nn(C)cc34)cc1F)C2([2H])[2H] [Compound 146, 6-(2,6-difluoro-4-(7-methoxy-2-methyl-2H-indazol-4-yl)benzyl)-3-(methoxy-d3)-6,7-dihydro-5H-pyrrolo[3,4-b]pyridin-5-one-7,7-d2] |
| 120 | 79 | 4930 | 25 | – | [2H]C([2H])([2H])Oc1cnc2c(c1)C(=O)N(Cc1ccc(-c3cccc4nn(C)cc34)cc1F)C2([2H])[2H] [Compound 82, 6-(2-fluoro-4-(2-methyl-2H-indazol-4-yl)benzyl)-3-(methoxy-d3)-6,7-dihydro-5H-pyrrolo[3,4-b]pyridin-5-one-7,7-d2] |
